Source: patent publication US11510980B2, “Brartemicin analogues” (VICTORIA LINK LTD, priority 2017, dated 2022)

Experiments:
[1] = molecular target: T1, hMincle-Ig (Homo sapiens, UniProt Q9ULY5); test: In vitro Mincle binding assay (ELISA) with hMincle-Ig fusion protein; details: plate-coated ligand 0.1 nmol/well
T1 construct: using soluble Mincle-Ig fusion-proteins; made in house
T1 sequence (Q9ULY5 41-219 limits assumed): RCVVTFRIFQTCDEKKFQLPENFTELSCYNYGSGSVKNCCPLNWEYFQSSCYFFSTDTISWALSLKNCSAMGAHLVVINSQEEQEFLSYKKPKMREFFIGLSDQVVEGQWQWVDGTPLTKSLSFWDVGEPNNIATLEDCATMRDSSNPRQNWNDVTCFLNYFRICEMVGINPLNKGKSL
Description: (§1) Preparation of ligand-coated plates: Brartemicin analogues 9a-9i, TDM (Carbosynth, Sigma Aldrich), and TDB^14 were dissolved in CHCl3:MeOH (2:1, 1 mM), diluted in isopropanol ([…]) and added to 96-well plates (20 μL/well). The solvents were evaporated and the coated plates were used immediately.
(§2) In vitro Mincle binding assay: The preparation of mMincle- and hMincle-Ig fusion proteins have been previously described. Plate-coated glycolipids 9a-i, TDB, and TDM were incubated with hMincle-Ig, mMincle-Ig, or hIgG1-Fc (Ig) [3 μg/mL in binding buffer (20 mM Tris-HCl, 150 mM NaCl, 1 mM CaCl2), 2 mM MgCl2, pH 7.0)]. Detection of bound protein was achieved via incubation with anti-hIgG-HRP followed by the addition of a colorimetric substrate and measurement of OD at 450 nm. Background was accounted for by subtracting the hIgG1-Fc OD450 values from fusion protein OD450 values
(§3) The synthesised brartemicin analogues prepared in Example 1 were first tested for their ability to bind to both human and murine Mincle in an enzyme-linked immunosorbent assay (ELISA) using soluble Mincle-Ig fusion-proteins (FIG. 1a).

[2] = molecular target: T2, mMincle-Ig (Mus musculus, UniProt Q9R0Q8); test: In vitro Mincle binding assay (ELISA) with mMincle-Ig fusion protein; parameters: species or system murine; details: plate-coated ligand 0.1 nmol/well
T2 construct: using soluble Mincle-Ig fusion-proteins; made in house
T2 sequence (Q9R0Q8 46-214 limits assumed): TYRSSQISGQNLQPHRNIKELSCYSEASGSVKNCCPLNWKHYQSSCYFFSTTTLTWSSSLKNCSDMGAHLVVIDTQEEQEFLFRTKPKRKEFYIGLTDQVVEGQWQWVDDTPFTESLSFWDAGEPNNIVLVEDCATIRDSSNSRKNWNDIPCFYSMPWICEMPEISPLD
Description: as §1, §2, §3

[3] = molecular target: T3, mMincle+FcRγ (Mus musculus, UniProt Q9R0Q8); test: 2B4-NFAT-GFP reporter cells expressing mMincle+FcRγ; type: cell-based, murine; details: ligand-coated plates 0.01, 0.1 or 1 nmol/well, 18 hours
T3 construct: expressed in transfected cells; host or cells: 2B4-NFAT-GFP reporter cells
T3 sequence (Q9R0Q8 1-214): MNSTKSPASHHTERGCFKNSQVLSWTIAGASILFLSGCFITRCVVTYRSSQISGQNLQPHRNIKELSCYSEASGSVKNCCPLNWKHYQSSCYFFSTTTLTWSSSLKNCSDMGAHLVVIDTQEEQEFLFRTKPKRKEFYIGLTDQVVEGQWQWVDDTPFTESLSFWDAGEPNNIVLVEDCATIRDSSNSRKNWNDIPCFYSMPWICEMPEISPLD
T3 sequence (P20491 19-86 partner): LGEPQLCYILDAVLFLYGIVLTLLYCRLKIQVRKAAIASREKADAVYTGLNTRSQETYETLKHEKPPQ
Description: as §1
(§4) 2B4-NFAT-GFP reporter cells: 2B4-NFAT-GFP reporter cells expressing mMincle+FcRγ, hMincle+FcRγ, or FcRγ only have been previously described. […] The reporter cells were harvested, stained with propidium iodide, and analysed for NFAT-GFP expression using flow cytometry (FACS Calibur).
(§5) To determine whether the Mincle binding observed in Example 1 correlated with cellular activation, nuclear factor of activated T cells (NFAT)-green fluorescent protein (GFP) reporter cells expressing mMincle or hMincle coupled to FcRγ were stimulated using plates coated with TDM, TDB, brartemicin (9i), or analogues 9a-9h.
(§6) Activation of the reporter cells was measured through the production of GFP, which was monitored by flow cytometry (FIGS. 1b and 3c).
(§7) With the compounds 43a-h in hand, the ability of these analogues to bind and signal through Mincle was assessed (FIG. 5). Accordingly, NFAT-GFP reporter cells expressing mMincle+FcRγ, hMincle+FcRγ, or FcRγ-only were stimulated with the 2G-brartemicin analogues 43a-h, TDB, iPrOH, or the p-OC18H37 substituted analogue, 9f. Reporter cell activation was measured by the production of NFAT-GFP, which was analysed by flow cytometry.

[4] = molecular target: T4, hMincle+FcRγ (Homo sapiens, UniProt Q9ULY5); test: 2B4-NFAT-GFP reporter cells expressing hMincle+FcRγ; type: cell-based; details: ligand-coated plates 0.01, 0.1 or 1 nmol/well, 18 hours
T4 construct: expressed in transfected cells; host or cells: 2B4-NFAT-GFP reporter cells
T4 sequence (Q9ULY5 1-219): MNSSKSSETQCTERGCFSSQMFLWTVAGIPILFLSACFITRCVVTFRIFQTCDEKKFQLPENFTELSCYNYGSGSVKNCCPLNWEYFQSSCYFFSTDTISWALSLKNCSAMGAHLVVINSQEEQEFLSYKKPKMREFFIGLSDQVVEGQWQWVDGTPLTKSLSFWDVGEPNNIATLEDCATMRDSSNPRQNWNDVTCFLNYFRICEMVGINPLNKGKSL
Description: as §1, §4, §5, §6, §7

[5] = test system: wild-type GM-CSF BMDMs; test: Cytokine/chemokine production by wild-type GM-CSF BMDMs on ligand-coated plates; type: cell-based, C57BL/6 mice; details: for IL-1β production / IL-6 production / MIP-2 production / TNF production: wild-type BMDMs, coated plates 0.1 or 1 nmol/well, 24 hours, ELISA
Description: as §1
Murine bone-marrow derived macrophages: For the preparation of murine bone-marrow derived macrophages, bone marrow cells were collected from the tibias and femurs of C57BL/6 mice and cultured (250,000 cells/mL) in complete RPMI media [RPMI-1640 (Gibco) with 10% heat inactivated fetal bovine serum (Gibco), 100 unit/mL penicillin-streptomycin (Gibco) and 2 mM Glutamax (Gibco)] supplemented with 50 ng/mL GM-CSF (clone X63/GM-CSF murine cells). Cells were incubated at 37° C. (5% CO2) for 8 days (cells fed by replacing half the media on days 3 and 6). On day 8, all media was removed and the cells were washed with Dulbecco's Phosphate-Buffered Saline (DPBS, Gibco) to remove any loosely-adherent cells. The BMDMs were harvested with StemPro Acutase (1 mL/well, 15 minutes at room temperature, Gibco) and seeded onto a pre-coated 96-well plate. The supernatant was collected and analysed for cytokine/chemokine production after 24 hours.
Cytokine analysis: IL-1β, IFN-γ, IL-6, TNF-α (BD Biosciences), IL-17, and MIP-2 (R&D) levels were determined via sandwich ELISA according to the manufacturer's instructions.
First, the ability of the compounds to activate GM-CSF BMDMs was determined by monitoring the secretion of the inflammatory cytokines TNF, IL-6, and IL-1β and the chemokine, MIP-2, in a ligand-coated plate assay (FIG. 2).
To gain insight into the capacity of the 2G-series of brartemicin analogues to induce an inflammatory immune response, the analogues were then screened for their ability to activate WT and Mincle^−/− BMDMs, with cellular activation being determined by the measurement of IL-1B using ELISA (FIG. 6).

activation of mMincle NFAT-GFP reporter cells (GFP by flow cytometry) ([3]; listed as Brartemicin) | SMILES | binding to hMincle-Ig (ELISA, OD at 450 nm) [1] | binding to mMincle-Ig (ELISA, OD at 450 nm) [2] | activation of mMincle NFAT-GFP reporter cells (GFP by flow cytometry) [3] | activation of hMincle NFAT-GFP reporter cells (GFP by flow cytometry) [4] | activation of BMDMs [5] | IL-1β production [5] | IL-6 production [5] | MIP-2 production [5] | TNF production [5]
not to activate | Cc1cc(O)cc(O)c1C(=O)OC[C@H]1O[C@H](O[C@H]2O[C@H](COC(=O)c3c(C)cc(O)cc3O)[C@@H](O)[C@H](O)[C@H]2O)[C@H](O)[C@@H](O)[C@@H]1O [9i, Brartemicin] | did not bind hMincle- or mMincle-Ig to any great extent | did not bind hMincle- or mMincle-Ig to any great extent | did not significantly activate mMincle | not to activate | not to activate | did not induce the production of any of the cytokines measured | did not induce the production of any of the cytokines measured | did not induce the production of any of the cytokines measured | did not induce the production of any of the cytokines measured
 | CCCCCCCOc1cc(C)c(C(=O)OCC2O[C@H](O[C@H]3OC(COC(=O)c4c(C)cc(OCCCCCCC)cc4O)[C@@H](O)C(O)C3O)C(O)C(O)[C@@H]2O)c(O)c1 (stereo partly drawn) [9h, 6,6′-Di-O-(4-heptyloxy-2-hydroxy-6-methylbenzoyl)-α,α′-D-trehalose] | good binding | good binding | strongly activated | strongly activated |  | significant production | significant production | significant production | significant production
 | CCCCCCCOc1ccc(C(=O)OCC2O[C@H](O[C@H]3OC(COC(=O)c4ccc(OCCCCCCC)cc4O)[C@@H](O)C(O)C3O)C(O)C(O)[C@@H]2O)c(O)c1 (stereo partly drawn) [9b, 6,6′-Di-O-(4-heptyloxy-2-hydroxybenzoyl)-α,α′-D-trehalose] | good binding | good binding | activated mMincle and hMincle NFATGFP reporter cells but to a lesser extent than the C18 analogues | activated mMincle and hMincle NFATGFP reporter cells but to a lesser extent than the C18 analogues |  | modest production | modest production | modest production | modest production
 | CCCCOc1ccc(C(=O)OCC2O[C@H](O[C@H]3OC(COC(=O)c4ccc(OCCCC)cc4O)[C@@H](O)C(O)C3O)C(O)C(O)[C@@H]2O)c(O)c1 (stereo partly drawn) [9c, 6,6′-Di-O-(2-hydroxy-4-butoxybenzoyl)-α,α′-D-trehalose] | did not bind hMincle- or mMincle-Ig to any great extent | did not bind hMincle- or mMincle-Ig to any great extent | able to activate mMincle and hMincle only at high ligand concentrations | able to activate mMincle and hMincle only at high ligand concentrations |  |  |  | induced MIP-2 | 
